{"source": "patent US7638482B2", "about": "“Protein kinase C zeta as a drug target for arthritis and other inflammatory diseases” (Wyeth, priority 2003, dated 2009)", "key": {"[1]": {"system": "primary bovine chondrocytes", "test": "Proteoglycan degradation in primary bovine chondrocyte pellet culture (release into media / retention in cell pellet, DMMB)", "type": "cell-based", "method": "Full-thickness bovine articular cartilage slices were dissected under aseptic conditions, rinsed four times in PBS, and subjected to pronase and collagenase digestion (1 mg/ml pronase (Calbiochem, San Diego, Calif.) for 30 minutes and 1 mg/ml Collagenase P (Roche Diagnostics Corporation, Indianapolis, Ind.) overnight at 37° C. in DME without serum) to isolate chondrocytes embedded in the cartilage extracellular matrix. The digest was filtered through a 70 micron Falcon™ cell strainer (BD Biosciences, San Jose, Calif.) and washed twice in DME containing 10% FBS. Typically 2-4×10^8 cells were obtained from a calf metacarpophalangeal joint surface. Cells were plated in monolayer in six-well plates at density of 2×10^6 cells/well. For pellet culture, cells were resuspended in growth media [HL-1 media (Cambrex Corporation, East Rutherford, N.J.), penicillin+streptomycin, glutamine, 50 μg/ml ascorbate, and 10% FBS] at 1×10^6 cells/ml, and 1 ml aliquots of cells were transferred to 15 ml sterile Falcon centrifuge tubes. The cells were centrifuged at 200×g for 5 min at 4° C. and the resulting cell pellets were cultured as described previously (Xu et al. (1996) Endocrinology 137:3557-65). Cell media were collected and stored for collagen and proteoglycan assays, and cells were refed with fresh media (3 ml/well, 1 ml/tube) every 3-4 days. Pellet cultures were maintained for 3 weeks, at which time the pellets were harvested and either digested with 0.5 ml of 300 μg/ml papain at 65° C. for 3-6 hrs for dimethylmethylene blue (DMMB) dye assays or prepared for histology.\nCells were incubated with the inhibitor for 3 hrs prior to the addition of either TNF or IL-1. […] SN50M, which served as a negative control, is the same peptide with amino acid changes to abolish NF-κB-blocking activity. SN50 and SN50M are available from, e.g., Biomol Research Laboratories, Inc. (Plymouth Meeting, Pa.).\nTo determine whether ζPKC inhibitors can inhibit TNF-mediated proteoglycan degradation, primary bovine chondrocytes were cultured with various concentrations of TNF for 5 days with or without (1) the myristoylated ζPKC peptide pseudosubstrate [herein termed “2089”; synthesized in-house; equivalent to SEQ ID NO:6; available from, e.g., BioSource International, Inc., USA (Camarillo, Calif.)], or (2) the small molecule inhibitor Ro-31-8220 (Sigma-RBI, Natick, Mass.). The inhibitors were added 3 hrs prior to addition of TNF.\nTo determine whether myristoylated ζPKC peptide pseudosubstrate 2089 can inhibit cytokine-mediated proteoglycan degradation in a dose-dependent manner, primary bovine chondrocytes were cultured with either 10 ng/ml TNF or 1 ng/ml IL-1 for 4 days after addition of various concentrations of 2089. […]"}, "NF-κB": {"system": "NF-κB", "test": "NF-κB luciferase reporter assay in immortalized human chondrocyte cell line C28/I2", "type": "cell-based", "settings": "BIS 20 μM; TNFα 1 or 10 ng/ml; C28/I2 cells; inhibitor added 2 hrs before TNF; FIG. 8", "method": "Activation of NF-κB was measured in an immortalized human chondrocyte cell line (C28/I2; see, e.g., Finger et al. (2003) Arthritis Rheum. 48:3395-403; Goldring (1994) J. Clin. Invest. 94:2307-16) into which a luciferase reporter gene under the control of an NF-κB response element was introduced. The cells were cultured in DMEM/Ham's F12 supplemented with 10% FBS; the cells were split into 96 wells (1×10^5 cells/well) and infected with adenovirus expressing NF-κB luciferase construct (100 MOI) 24 hrs prior to assay. The chondrocytes were incubated with inhibitors in serum-free media 2 hrs prior to the addition of TNF. […] BIS (20 μM), a pan-PKC inhibitor, was added to some cultures, and CC (8 μM), a competitive inhibitor of the phorbol ester binding site in some forms of PKC (but not the a typical PKCs, e.g., ζPKC), was added to other cultures."}, "ζPKC": {"target": "T1, ζPKC (Homo sapiens, UniProt Q05513)", "T1 sequence (Q05513 1-592)": "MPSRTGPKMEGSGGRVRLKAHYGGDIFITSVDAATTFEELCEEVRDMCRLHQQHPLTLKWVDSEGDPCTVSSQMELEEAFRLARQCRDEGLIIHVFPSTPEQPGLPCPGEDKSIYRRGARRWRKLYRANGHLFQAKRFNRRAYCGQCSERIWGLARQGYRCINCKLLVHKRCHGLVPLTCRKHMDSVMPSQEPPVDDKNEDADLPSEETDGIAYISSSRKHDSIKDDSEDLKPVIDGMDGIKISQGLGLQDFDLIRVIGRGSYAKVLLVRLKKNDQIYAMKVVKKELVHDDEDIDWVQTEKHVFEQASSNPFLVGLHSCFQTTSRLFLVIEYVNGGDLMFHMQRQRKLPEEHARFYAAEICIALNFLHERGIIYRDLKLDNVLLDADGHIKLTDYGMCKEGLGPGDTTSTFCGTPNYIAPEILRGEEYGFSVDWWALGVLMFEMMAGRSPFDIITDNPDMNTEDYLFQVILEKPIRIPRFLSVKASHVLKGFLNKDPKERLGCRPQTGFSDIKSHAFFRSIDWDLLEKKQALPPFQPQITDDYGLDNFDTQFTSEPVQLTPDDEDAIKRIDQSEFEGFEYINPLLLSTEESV", "settings": "literature (Toullec et al. 1991); cited from earlier work"}, "[2]": {"system": "primary bovine chondrocytes", "test": "Trypan blue staining of chondrocytes and lactate assays on culture media (cytotoxicity)", "type": "cell-based", "method": "Trypan blue staining of the chondrocytes and lactate assays on the culture media were performed to rule out cytotoxicity as a possible explanation for the results. […] In addition, control peptides were synthesized and tested in the same assay system to address the possibility that nonspecific effects may be causing the observed results."}}, "note": "Where two headings read alike, the source gives them in different places. Where a SMILES comes first, the peptide text is derived from it. The star is where a group is joined. Myristoyl = CCCCCCCCCCCCCC(=O)*", "data": [{"compound": "bisindolylmaleimide", "values": [{"measurement": "TNFα-mediated release of proteoglycan into the media", "setting": "[1]; BIS at 20-40 μM, TNFα 100 ng/ml, FIG. 7", "value": "blocked"}, {"measurement": "TNFα-mediated activation of NF-κB (relative luciferase activity)", "setting": "NF-κB", "value": "blocked"}, {"measurement": "inhibition of PKC isoforms including ζPKC", "setting": "ζPKC", "value": "block the activity of all isoforms of PKC"}]}, {"compound": "CCCCCCCCCCCCCC(=O)N[C@@H](CO)C(=O)N[C@H](C(=O)N[C@@H](Cc1ccc(O)cc1)C(=O)N[C@@H](CCCNC(=N)N)C(=O)N[C@@H](CCCNC(=N)N)C(=O)NCC(=O)N[C@@H](C)C(=O)N[C@@H](CCCNC(=N)N)C(=O)N[C@@H](CCCNC(=N)N)C(=O)N[C@@H](Cc1c[nH]c2ccccc12)C(=O)N[C@@H](CCCNC(=N)N)C(=O)N[C@@H](CCCCN)C(=O)N[C@@H](CC(C)C)C(=O)O)[C@@H](C)CC", "note": "[compound 2089] (Myristoyl-SIYRRGARRWRKL-OH)", "values": [{"measurement": "cytotoxicity (trypan blue staining, lactate assays)", "setting": "[2]", "value": "do not cause appreciable cytotoxicity"}]}, {"compound": "Cn1cc(C2=C(c3cn(CCCSC(=N)N)c4ccccc34)C(=O)NC2=O)c2ccccc21", "note": "[Ro-31-8220]", "values": [{"measurement": "TNF-mediated proteoglycan degradation", "setting": "[1]; 5 μM Ro-31-8220, 5 days, FIG. 3", "value": "relatively ineffective"}, {"measurement": "TNF-mediated proteoglycan degradation", "setting": "[1]; 10 μM Ro-31-8220, TNF 10 and 100 ng/ml, 5 days, FIG. 3", "value": "significantly inhibited"}, {"measurement": "proteoglycan degradation in the absence of TNF", "setting": "[1]; no TNF, 5 days, FIG. 3", "value": "inhibited proteoglycan degradation"}, {"measurement": "cytotoxicity (trypan blue staining, lactate assays)", "setting": "[2]; at the doses used in the proteoglycan degradation experiments", "value": "do not cause appreciable cytotoxicity"}]}]}
